In US8114909B2, “Treating or preventing restless legs syndrome using prodrugs of GABA analogs” (XenoPort, Inc., priority 2003, dated 2012):

Assay: drug release from the sustained release oral osmotic dosage form in artificial gastric fluid
Type: physicochemical
Conditions: release of prodrug from the osmotic sustained release dosage form of Example 1 (700 mg drug composition, one 10 mil passageway)
Protocol: The bilayered arrangements next are coated with a semipermeable wall. The wall-forming composition comprises 100% cellulose acetate having a ˜40% acetyl content. The polymer is dissolved in 100% acetone to make a 4% solid solution. The wall forming composition is sprayed at 26 grams/min onto and around the bilayer cores in a tablet coater until a dry weight of 90 mg/core is achieved. Next, one 10 mil (0.254 mm) exit passageway is mechanically drilled through the semipermeable wall to connect the drug layer with the exterior of the dosage system. The residual solvent is removed by first drying for 120 hours at 50° C. and 30% relative humidity, then the systems are dried for 2 hours at 50° C. to remove excess moisture. The drug dosage form produced by this process provides: ˜90 wt % 1-{[(α-isobutanoyloxyethoxy)carbonyl]aminomethyl}-1-cyclohexane acetic acid, 4 wt % hydroxypropylmethylcellulose of 11,200 molecular weight, 4 wt % polyethylene oxide of 5,000,000 molecular weight and 1 wt % magnesium stearate in the drug layer. The push composition comprises 63.7 wt % polyethylene oxide of 7,500,000 molecular weight, 30 wt % sodium chloride, 5 wt % hydroxypropylmethylcellulose of 11,200 molecular weight, 1 wt % red ferric oxide, 0.25 wt % magnesium stearate, and 0.075 wt % of butylated hydroxytoluene. The wall comprises 100 wt % cellulose acetate comprising a ˜40% acetyl content. […]

In the case of `CC(OC(=O)NCC1(CC(=O)O)CCCCC1)OC(=O)C(C)C` (stereo not drawn) [1-{[(α-isobutanoyloxyethoxy)carbonyl]aminomethyl}-1-cyclohexane acetic acid], the release rate was over 20 mg/h.
